# Source: ChEMBL document CHEMBL2331446, “Discovery of a potential anti-inflammatory agent: 3-oxo-29-noroleana-1,9(11),12-trien-2,20-dicarbonitrile” (J Med Chem, 2013)
# The source made the active and inactive calls. The rule behind the calls is not given here.
# Assays:
# RAW264.7 [1] = assay: Antiinflammatory activity in mouse RAW264.7 cells assessed as inhibition of LPS-induced NO production incubated for 2 hrs prior to LPS-challenge measured after 24 hrs by Griess method; format: functional, cell-based
# RAW264.7 [2] = assay: Antiinflammatory activity in mouse RAW264.7 cells assessed as inhibition of LPS-induced NO production at 50 uM incubated for 2 hrs prior to LPS-challenge measured after 24 hrs by Griess method; format: functional
# RAW264.7 [3] = assay: Cytotoxicity against mouse LPS-challenged RAW264.7 cells at 80 uM after 24 hrs by MTT assay; format: cell-based; conditions: raw264.7, 24 h
# RAW264.7 [4] = assay: Cytotoxicity against mouse RAW264.7 cells at 80 uM after 24 hrs by MTT assay; format: cell-based; conditions: raw264.7, 24 h
# Mus musculus [5] = assay: Antiinflammatory activity in ICR mouse assessed as protection against LPS-induced sepsis at 20 mg/kg, ip administered for 5 days prior to LPS-challenge measured after 2 hrs; format: functional, organism-based; parameters: dose 20 mg/kg
# Mus musculus [6] = assay: Antiinflammatory activity in ICR mouse assessed as reversal in LPS-induced weight loss at 20 mg/kg, ip administered for 5 days prior to LPS-challenge measured from day 9 to 11 relative to control; format: functional, organism-based; parameters: dose 20 mg/kg
# Mus musculus [7] = assay: Antiinflammatory activity in ICR mouse assessed as reversal in LPS-induced weight loss at 20 mg/kg, ip administered for 5 days prior to LPS-challenge measured up to day 8 relative to control; format: functional, organism-based; parameters: dose 20 mg/kg
# Mus musculus [8] = assay: Antiinflammatory activity in ICR mouse assessed as protection against LPS-induced sepsis at 50 mg/kg, ip administered for 5 days prior to LPS-challenge measured after 2 hrs; format: functional, organism-based; parameters: dose 50 mg/kg
# [9] = target: T1, NF-kappa-B inhibitor alpha (Mus musculus) (UniProt Q9Z1E3); assay: Inhibition of IkappaBalpha degradation in mouse LPS-induced RAW264.7 cells assessed as increase in cytosolic IkappaB level at 75 uM incubated for 2 hrs prior to LPS-challenge measured after 30 mins by Western blot analysis; format: cell-based
# T1 sequence (whole entry): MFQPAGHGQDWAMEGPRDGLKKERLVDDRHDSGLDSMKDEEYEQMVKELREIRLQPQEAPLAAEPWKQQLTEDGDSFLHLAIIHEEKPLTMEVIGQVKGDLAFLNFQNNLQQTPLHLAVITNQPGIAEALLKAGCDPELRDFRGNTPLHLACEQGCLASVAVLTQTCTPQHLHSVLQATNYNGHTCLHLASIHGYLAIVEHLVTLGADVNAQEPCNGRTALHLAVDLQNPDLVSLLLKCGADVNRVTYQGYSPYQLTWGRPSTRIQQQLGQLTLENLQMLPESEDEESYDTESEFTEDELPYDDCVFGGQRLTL
# RAW264.7 [10] = assay: Inhibition of ERK phosphorylation in mouse LPS-induced RAW264.7 cells at 75 uM incubated for 2 hrs prior to LPS-challenge measured after 30 mins by Western blot analysis; format: cell-based
# RAW264.7 [11] = assay: Antiinflammatory activity in mouse RAW264.7 cells assessed as inhibition of LPS-stimulated IL-6 mRNA expression at 75 uM incubated for 2 hrs prior to LPS-challenge measured after 8 hrs by quantitative real time PCR analysis; format: functional, cell-based
# RAW264.7 [12] = assay: Antiinflammatory activity in mouse RAW264.7 cells assessed as inhibition of LPS-stimulated TNF-alpha mRNA expression at 75 uM incubated for 2 hrs prior to LPS-challenge measured after 8 hrs by quantitative real time PCR analysis; format: functional, cell-based
# RAW264.7 [13] = assay: Antiinflammatory activity in mouse RAW264.7 cells assessed as inhibition of LPS-stimulated IL-1beta mRNA expression at 75 uM incubated for 2 hrs prior to LPS-challenge measured after 8 hrs by quantitative real time PCR analysis; format: functional, cell-based
# RAW264.7 [14] = assay: Inhibition of JNK phosphorylation in mouse LPS-induced RAW264.7 cells at 75 uM incubated for 2 hrs prior to LPS-challenge measured after 30 mins by Western blot analysis; format: cell-based
# [15] = target: MAP kinase p38 (Mus musculus) (UniProt P47811+O08911+Q9WUI1+Q9Z1B7); assay: Inhibition of MAPK p38 in mouse LPS-induced RAW264.7 cells at 75 uM incubated for 2 hrs prior to LPS-challenge measured after 30 mins by Western blot analysis; format: cell-based
# RAW264.7 [16] = assay: Antiinflammatory activity in mouse RAW264.7 cells assessed as inhibition of LPS-induced iNOS protein expression at 75 uM incubated for 2 hrs prior to LPS-challenge measured after 24 hrs by Western blot analysis; format: functional, cell-based
# [17] = target: T1, NF-kappa-B inhibitor alpha (Mus musculus); assay: Inhibition of IkappaBalpha in mouse RAW264.7 cells assessed as inhibition of LPS-stimulated NF-kappaB p65 subunit accumulation in nucleus at 75 uM incubated for 2 hrs prior to LPS-challenge measured after 30 mins by Western blot analysis; format: cell-based
# [18] = target: T1, NF-kappa-B inhibitor alpha (Mus musculus); assay: Inhibition of IkappaB phosphorylation in mouse RAW264.7 cells assessed as decrease in LPS-induced phospho-IkappaBalpha level at 75 uM incubated for 2 hrs prior to LPS-challenge measured after 30 mins by Western blot analysis; format: cell-based
Compound,IC50 (RAW264.7 [1]) [µM],inhibition at 50 µM (RAW264.7 [2]) [%],Activity (RAW264.7 [3]),Activity (RAW264.7 [4]),also measured
COC(=O)[C@@]1(C)CC[C@]2(C)CC[C@]3(C)C(=CC=C4[C@@]5(C)C=CC(=O)C(C)(C)[C@@H]5CC[C@]43C)[C@@H]2C1,> 50,5.5,Non-toxic,Non-toxic,
COC(=O)[C@@]1(C)CC[C@]2(C)CC[C@]3(C)C(=CC=C4[C@@]5(C)C=C(C#N)C(=O)C(C)(C)[C@@H]5CC[C@]43C)[C@@H]2C1,20,67.3,Non-toxic,Non-toxic,
CNC(=O)[C@@]1(C)CC[C@]2(C)CC[C@]3(C)C(=CC=C4[C@@]5(C)C=C(O)C(=O)C(C)(C)[C@@H]5CC[C@]43C)[C@@H]2C1,> 50,27.6,Non-toxic,Non-toxic,
CC1(C)[C@@H](O)CC[C@]2(C)C3=CC=C4[C@@H]5C[C@@](C)(C(=O)O)CC[C@]5(C)CC[C@@]4(C)[C@]3(C)CC[C@@H]12,> 50,15.6,Non-toxic,Non-toxic,
C[C@@H]1C[C@H]2[C@@H]3CCC4=CC(=O)C=C[C@]4(C)[C@@]3(F)[C@@H](O)C[C@]2(C)[C@@]1(O)C(=O)CO [DEXAMETHASONE],1.43,98.2,,,Activity (Mus musculus [5]): Active; Activity (Mus musculus [6]): Active; Activity (Mus musculus [7]): inactive
CC1(C)C(=O)C(O)=C[C@]2(C)C3=CC=C4[C@@H]5C[C@@](C)(C(N)=O)CC[C@]5(C)CC[C@@]4(C)[C@]3(C)CC[C@@H]12,35.1,37.5,Non-toxic,Non-toxic,
CC1(C)C(=O)C(O)=C[C@]2(C)C3=CC=C4[C@@H]5C[C@@](C)(C(=O)O)CC[C@]5(C)CC[C@@]4(C)[C@]3(C)CC[C@@H]12,32.8,42.1,Non-toxic,Non-toxic,
CC1(C)C(=O)CC[C@]2(C)C3=CC=C4[C@@H]5C[C@@](C)(C(=O)O)CC[C@]5(C)CC[C@@]4(C)[C@]3(C)CC[C@@H]12,> 50,7.36,Non-toxic,Non-toxic,
CC1(C)C(=O)C(C#N)=C[C@]2(C)C3=CC=C4[C@@H]5C[C@@](C)(C(=O)O)CC[C@]5(C)CC[C@@]4(C)[C@]3(C)CC[C@@H]12,3.08,98.4,Non-toxic,Non-toxic,
COC(=O)[C@@]1(C)CC[C@]2(C)CC[C@]3(C)C(=CC=C4[C@@]5(C)C=C(I)C(=O)C(C)(C)[C@@H]5CC[C@]43C)[C@@H]2C1,> 50,15.3,Non-toxic,Non-toxic,
CC1(C)C(=O)C(O)=C[C@]2(C)C3=CC=C4[C@@H]5C[C@@](C)(C(=O)n6ccnc6)CC[C@]5(C)CC[C@@]4(C)[C@]3(C)CC[C@@H]12,6.22,99,Non-toxic,Non-toxic,

# More lines, main results first:
IC50 (RAW264.7 [1]) [µM],Compound,inhibition at 50 µM (RAW264.7 [2]) [%],Activity (RAW264.7 [3]),Activity (RAW264.7 [4]),also measured
25.1,CC1(C)C(=O)C(I)=C[C@]2(C)C3=CC=C4[C@@H]5C[C@@](C)(C#N)CC[C@]5(C)CC[C@@]4(C)[C@]3(C)CC[C@@H]12,52.9,Non-toxic,Non-toxic,
40.1,CC1(C)C(=O)C=C[C@]2(C)C3=CC=C4[C@@H]5C[C@@](C)(C(N)=O)CC[C@]5(C)CC[C@@]4(C)[C@]3(C)CC[C@@H]12,32.5,Non-toxic,Non-toxic,
20.1,CC1(C)C(=O)C(I)=C[C@]2(C)C3=CC=C4[C@@H]5C[C@@](C)(C(=O)O)CC[C@]5(C)CC[C@@]4(C)[C@]3(C)CC[C@@H]12,60.3,Non-toxic,Non-toxic,
38.6,COC(=O)[C@@]1(C)CC[C@]2(C)CC[C@]3(C)C(=CC=C4[C@@]5(C)C=C(O)C(=O)C(C)(C)[C@@H]5CC[C@]43C)[C@@H]2C1,33.3,Non-toxic,Non-toxic,
188,CC1(C)[C@@H](O)CC[C@]2(C)[C@H]3C(=O)C=C4[C@@H]5C[C@@](C)(C(=O)O)CC[C@]5(C)CC[C@@]4(C)[C@]3(C)CC[C@@H]12 [ENOXOLONE],5.12,,,Activity (Mus musculus [8]): Active; inhibition [9]: Active; inhibition (RAW264.7 [10]): Active; inhibition (RAW264.7 [11]): Active; inhibition (RAW264.7 [12]): Active; inhibition (RAW264.7 [13]): Active; inhibition (RAW264.7 [14]): Active; inhibition [15]: Active; inhibition (RAW264.7 [16]): Active; inhibition [17]: Active; inhibition [18]: Active
28.5,CC1(C)C(=O)C=C[C@]2(C)C3=CC=C4[C@@H]5C[C@@](C)(C#N)CC[C@]5(C)CC[C@@]4(C)[C@]3(C)CC[C@@H]12,50.2,Non-toxic,Non-toxic,
> 50,CC1(C)C(=O)C=C[C@]2(C)C3=CC=C4[C@@H]5C[C@@](C)(C(=O)O)CC[C@]5(C)CC[C@@]4(C)[C@]3(C)CC[C@@H]12,25.1,Non-toxic,Non-toxic,
